“Also recorded” adds a separate entry of the source. Marks after values point to notes of the source that are not given here.
How the values were obtained:
[1] = system: ischemia induced by middle cerebral artery occlusion (MCAO); assay: Pretreatment with estrogen compound before middle cerebral artery occlusion (MCAO) in ovariectomized rats; format: in vivo, rat; set-up: % Survival: concentration or dose not given beside the values
Description: Rats were used as experimental models to test the effects of estrogen compounds in protecting against ischemic damage. To remove the naturally occurring source of estrogen, ovariectomies were performed prior to induction of ischemia.
Subsequent to the ovariectomy, rats were treated with an estrogen compound either by subcutaneous delivery with Silastic® tubes 24 hours prior to the MCA occlusion or by intravenous delivery as follows:
Subcutaneous sustained delivery: 17β- or 17α-estradiol was packed into 5 mm long Silastic® tubes (Dow-Corning, Midland, Mich.) according to the method of Mohammed et al. 1985 Ann. Neurol 18, 705-711. Sham (empty) tubes were similarly prepared as estrogen negative controls. […]
The control was administered HPCD only. The chemical delivery system is formulated so that the estrogen is slowly released from the carrier.
At 7 to 8 days after ovariectomy, a method for occluding the […] was applied to the rat using modifications of the methods of Longa et al. (1989) Stroke, vol. 20, 84-91; and Nagasawa et al. (1989) Stroke, vol.20, 1037-1043, with certain modifications, as described herein.
Animals were anesthetized by ip injection with ketamine (60 mg/kg) and xylazine (10 mg/kg). Rectal temperature was monitored and maintained between 36.5 and 37.0 C with a heat lamp throughout the entire procedure. The left carotid artery was exposed through a midline cervical incision. The left sternohyloid, sternomastoid, digastric (posterior belly) and the omohyloid muscles were divided and retracted. Part of the greater horn of the hyloid bone was cut to facilitate exposure of the distal external carotid artery (ECA). The common carotid artery (CCA), ECA, and internal carotid artery (ICA) were dissected away from adjacent nerves. The distal ECA and its branches, the CCA, and the pterygopalatine arteries were coagulated completely. A microvascular clip was placed on the ICA near skull base. A 2.5 cm length of 3-0 monofilament nylon suture was heated to create a globule for easy movement and blocking of the lumen of the vessel. This was introduced into the ECA lumen through the puncture. The suture was gently advanced to the distal ICA until it reached the clipped position. The microvascular clip was then removed and the suture was inserted until resistance was felt. The distance between the CCA bifurcation and the resistive point was about 1.8 cm. This operative procedure was completed within 10 minutes without bleeding. After the prescribed occlusion tine (40 minutes), the suture was withdrawn from the ICA and the distal ICA was immediately cauterized.
Animals that survived until the scheduled sacrifice time were sacrificed by decapitation. Scheduled post-ischemic sacrifices occurred at 6 hours, 24 hours and 1 week post MCAO (Table 1). For the 6-hour sample, animals were monitored continuously. […] Similarly, animals scheduled for the 1 week post-ischemic sacrifice were monitored for the first 4 hours after surgery and then daily thereafter.
The brains were isolated from the decapitated heads, sliced into 3 or 5 coronal tissue slices as described below and then stained with hematoxylin and eosin to determine the extent of the ischemic area Stained slices were photographed and subsequently imaged using a Macintosh Cadre 800 computer, equipped with an Image 1.47 software program for the assessment of the cross-sectional area of the ischemic lesion. These images and the calculated area of ischemic damage were stored in the program for later retrieval and data reduction. The significance of differences in mortality among the different treatment groups was determined using Chi-Square analysis.
Ovariectomized rats were treated with 5 mm Silastic® tubes containing 17α-estradiol at 24 hours prior to MCAO. At 24 hours after the MCAO, the animals were sacrificed and the brains extracted.

[2] = system: middle cerebral artery (MCA) occlusion; assay: Pretreatment with ent-17β-estradiol or 17β-estradiol sc in oil before MCA occlusion; format: in vivo, Sprague-Dawley female rats; conditions: for infarct area (mean±SEM): 100 μg/kg sc in oil 2 hours prior to 60 minute MCA occlusion, 24 hours reperfusion, vehicle 13.3±2.0
Description: Sprague-Dawley female rats ([…] body weight) were purchased from Charles River Laboratories, Inc. (Wilmington, Mass.). They were housed in pairs in hanging, stainless steel cage in a temperature controlled room (25° C.) with daily light cycle (light on 0700 to 1900 h daily) for a minimum of 3 days before surgery. All rats had free access to Purina Rat Chow and tap water. All procedures performed on animals were reviewed and approved by the Institutional Animal Care and Use Committee of the University of Florida before initiation of the study. Animals were ovariectomized at 1 week prior to middle cerebral artery (MCA) occlusion.
MCAO was achieved according to the methods described previously by us. Briefly, following administration of anesthetics of ketamine (60 mg/kg, ip) and xylazine (10 mg/kg, ip), the common carotid artery […] on the left side were exposed through a midline cervical incision and then gently dissected away from adjacent nerves. A 3-0 monofilament nylon suture was introduced into the left […] and gently advanced to the distal ICA until resistance was felt where the suture passed the bifurcation of the MCA and anterior cerebral artery (ACA). The thread was left in place for 60 minutes after which time re-perfusion was initiated. Rectal temperature was monitored and maintained between 36.5 and 37.0° C. during the entire stroke procedure. Each group of animals was decapitated after 24 hours of reperfusion. The brain was removed and placed in a metallic brain matrix for tissue slicing immediately after sacrifice. Five slices were made at […] posterior to the olfactory bulb. The slices were incubated for 30 minutes in a 2% solution of 2,3,5-triphenyltetrazolium chloride (ITC) in physiological saline at 37° C. and then were fixed in 10% formalin. The stained slices were photographed and subsequently measured for the surface area of the slices and the ischemic lesion area. Ischemic lesion volume was calculated as by the sums of the areas of ischemic lesion across the five slices divided by the total cross sectional area of these five brain slices.

[3] = system: ischemia induced by middle cerebral artery occlusion (MCAO); assay: Post-treatment with E2-CDS after onset of MCAO in ovariectomized rats; format: in vivo, rat
Description: At 7 to 8 days after ovariectomy, a method for occluding the middle carotid artery was applied to the rat using modifications of the methods of Longa et al. (1989) Stroke, vol.
Animals were anesthetized by ip injection with ketamine (60 mg/kg) and xylazine (10 mg/kg). Rectal temperature was monitored and maintained between 36.5 and 37.0 C with a heat lamp throughout the entire procedure. The left carotid artery was exposed through a midline cervical incision. The left sternohyloid, sternomastoid, digastric (posterior belly) and the omohyloid muscles were divided and retracted. Part of the greater horn of the hyloid bone was cut to facilitate exposure of the distal external carotid artery (ECA). The common carotid artery (CCA), ECA, and internal carotid artery (ICA) were dissected away from adjacent nerves. The distal ECA and its branches, the CCA, and the pterygopalatine arteries were coagulated completely. A microvascular clip was placed on the ICA near skull base. A 2.5 cm length of 3-0 monofilament nylon suture was heated to create a globule for easy movement and blocking of the lumen of the vessel. This was introduced into the ECA lumen through the puncture. The suture was gently advanced to the distal ICA until it reached the clipped position. The microvascular clip was then removed and the suture was inserted until resistance was felt. […]

[4] = system: primary rat brain capillary endothelial cells (BCEC); assay: Brain capillary endothelial cell mortality under anoxia (Trypan blue); format: cell-based; conditions: 2 nM, 200 mg % glucose
Description: (§1) Primary rat brain capillary endothelial cells (BCEC) cultures were prepared following the method of Goldstein, J. Neurochemistry vol.
(§2) Nitrogen gas was influxed to replace the oxygen inside the chamber. The chamber was sealed and placed in the incubator for four hours for nonhypoglycemic cultures and 2 hours for hypoglycemic cultures.

[5] = system: primary rat brain capillary endothelial cells (BCEC); assay: Brain capillary endothelial cell mortality under hypoglycemia (Trypan blue); format: cell-based; conditions: 2 nM
Description: Neurochemistry vol. 25, 715-717, 1975, incorporated herein by reference. […] The glucose concentration of the culture media was then adjusted from 20 mg % to 200 mg % by adding appropriate amount of D-(+)-glucose to the glucose-free media and monitored by Glucose and L-Lactate Analyzer (YSI model 2300 STAT plus, YSI, Inc., Yellow Springs, Ohio). The hypoglycemic cultures were maintained for 24 hours or 48 hours prior to staining with Trypan blue. Cell mortality was counted using Trypan blue staining method. Cell death percentage was calculated as dead cell/alive cell×100%. Statistical methods used included two-way analysis of variance, applied to determine the significance of the difference among the experimental groups. Kruskal-Wallis nonparametric analysis was used for data presented as percentage. […] P<0.05 was considered significant.

[6] = system: primary rat brain capillary endothelial cells (BCEC); assay: Brain capillary endothelial cell mortality under combined anoxia and hypoglycemia; format: cell-based; conditions: 2 nM; 100 mg % glucose and 2 hours anoxia
Description: as §1, §2

[7] = system: ischemia induced by middle cerebral artery occlusion (MCAO); assay: Post-treatment at 0.5, 1, 2, 3 and 4 hours after MCAO, ischemic lesion volume; format: in vivo, rat; conditions: iv 100 μg/kg HPCD-complexed plus Silastic pellet at 0.5, 1, 2, or 3 hours post-occlusion; 48 hours after MCAO
Description: Ovariectomized, non-treated animals (OVX) and non-ovariectomized, non-treated animals (INT) were used as controls (n=12 and n=6, respectively). At 48 hours following MCAO, animals were sacrificed and ischemic lesion volume was determined by obtaining brain sections as previously described and staining with TTC.

[8] = 5 mm Silastic tube 24 hours prior to MCAO, sacrifice 24 hours after MCAO, vs sham
[9] = Total of all planned sacrifice times
[10] = planned sacrifice 1 Day after MCAO
[11] = planned sacrifice 1 Week after MCAO
[12] = planned sacrifice 6 hrs after MCAO

SMILES: C[C@]12CC[C@@H]3c4ccc(O)cc4CC[C@H]3[C@@H]1CC[C@H]2O [17α-estradiol]
- reduction of ischemic area, slice C [1, 8]: 55%
- reduction of ischemic area, slice D [1, 8]: 66%
- reduction of ischemic area, slice E [1, 8]: 81%
- protective effect in tissue slices A-E (FIG. 3) ([1]; sustained subcutaneous delivery initiated 24 hours prior to ischemic event): significant protective effect

SMILES: C[C@]12CC[C@@H]3c4ccc(O)cc4CC[C@H]3[C@@H]1CC[C@@H]2O [17β-estradiol]
- infarct area (mean±SEM) [2]: 5.3±1.6
- reduction of infarct ([2]; 100 μg/kg sc in oil 2 hours prior to MCA occlusion, vs vehicle): 60%
- reduction of ischemic area ([3]; administered 40 minutes after MCAO, range over slices): 45-90%
- reduction of ischemic area (area under the ischemic curve) ([3]; administered 90 minutes after MCAO): 31%
- reduction of ischemic lesion size of the whole coronal section, region C ([1]; 10 μg/kg sc injection two hours prior to MCAO, sacrifice at 24 hours, 9 mm caudal to olfactory bulb): 46.3%
- reduction of ischemic lesion size of the whole coronal section, region D ([1]; 10 μg/kg sc injection two hours prior to MCAO, sacrifice at 24 hours, 11 mm caudal to olfactory bulb): 44.1%
- Number of Animals Alive [1, 9]: 14
- Number of Animals Dead [1, 9]: 4
- % Survival ([1]; Total of all planned sacrifice times, pretreatment 24 hours prior to MCAO): 78%
- % Survival ([1]; Total of all planned sacrifice times, pretreatment 24 hours prior to MCAO, listed as E2 Implant): 78* %
- Number of Animals Alive [1, 10]: 8
- Number of Animals Dead [1, 10]: 0
- % Survival ([1]; planned sacrifice 1 Day after MCAO, pretreatment 24 hours prior to MCAO): 100* %
- Number of Animals Alive [1, 11]: 3
- Number of Animals Dead [1, 11]: 1
- % Survival ([1]; planned sacrifice 1 Week after MCAO, pretreatment 24 hours prior to MCAO): 75* %
- Number of Animals Alive [1, 12]: 3
- Number of Animals Dead [1, 12]: 3
- % Survival ([1]; planned sacrifice 6 hrs after MCAO, pretreatment 24 hours prior to MCAO): 50%
- ischemic lesion, percent of cross-sectional area of brain sections ([1]; pretreatment 24 hours prior to MCAO, 3 brain slices, sacrifice 1 day or 1 week, sham 25.6±5.7%): 9.8±4.0%
- mortality ([1]; pretreatment of ovariectomized rats before MCAO, untreated 65%): 22%
- protective effect in tissue slices A-D (FIG. 2) ([1]; subcutaneous injection two hours prior to ischemic event): significant protective effect
- reduction of cell death ([4]; 1 hour anoxic insult): 28.4%
- reduction of cell death ([4]; 4 hour anoxic insult): 18.4%
- cell loss saved vs control ([5]; medium glucose 20 mg %): 23. %
- cell loss saved vs control ([5]; medium glucose 40 mg %): 28.4%
- cell loss saved vs control ([5]; medium glucose 100 mg %): 35.9%
- difference in percent cell death with and without estrogen ([5]; normal glucose 200 mg %): Little difference
- protection of BCEC from cumulative effect of hypoglycemia and anoxia [6]: effective in protecting cultured BCEC
- protection, ischemic lesion volume [7]: significant protection

SMILES: C[C@@]12CC[C@H]3c4ccc(O)cc4CC[C@@H]3[C@H]1CC[C@H]2O [ent-17β-estradiol, (8α,9β,13α,14β,17α)-estra-1,3,5(10)-triene-3,17-diol]
- effectiveness in reducing percent lesion volume compared with 17β-estradiol ([2]; 100 μg/kg sc in oil): as effective in reducing the percent lesion volume as 17β-estradiol; also recorded: as effective a therapeutic agent as 17β-estradiol
- infarct area (mean±SEM) [2]: 5.3±1.7

Source: patent US6350739B1, “Methods of prevention and treatment of ischemic damage” (University of Florida Resarch Foundation, Inc., priority 1999, dated 2002)
